Results as given in publication PMC9519446, “Discovery of an Orally Active Benzoxaborole Prodrug Effective in the Treatment of Chagas Disease in Non-human Primates” (Nature microbiology, 2022).
Values joined by “and” are separate entries in the source; they are usually repeats but may differ in a detail not shown here. Identical values can stand only once. “Also recorded” adds a separate entry of the source. Marks after values point to notes of the source that are not given here.

Columns and labels:
[1] = tested on: tdTomato expressing T. cruzi (CL strain); assay: Rapid in vivo assay: footpad infection, single oral dose, fluorescence imaging 2 and 4 dpi (proliferation index);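 on Parasite proliferation index of footpads infected with tdTomato-expressing T. cruzi: single oral dose of 50 mg/kg given at 2 dpi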; set-up: species or system C57BL/6 mice; conditions: for Fluorescence intensity of the feet of mice infected with tdTomato-expressing T. cruzi: individual feet
Method: Fluorescent intensity of the feet was measured at 2 dpi before compound administration and at 4 dpi in the Maestro in vivo imaging system equipped with the software Maestro 2.1.0 (CRi) as previously described. The proliferation index was estimated as PI=[(T4d – T2d)/(mUnt4d-mUnt2d)]*100; where T4d and T2d are the fluorescence intensity of the feet of the treated animals at days 4 and 2 post-infection respectively; mUnt4d and mUnt2d are the average fluorescence intensity of the feet of the untreated animals at 4 and 2 dpi respectively.

[2] = tested on: Luciferase-expressing T. cruzi (Brazil strain); assay: In vivo killing time assay (footpad bioluminescence); set-up: species or system C57BL/6 mice; conditions: for Bioluminiscence signal of the feet of mice infected with Luciferase expresssing T. cruzi: individual feet
Method: C57BL/6 mice were infected with 2.5x10^5 Luciferase-expressing T. cruzi (Brazil strain) in the foot pads, and two days later one oral dose of AN14353 (25 mg/kg) was administered. The bioluminescent signal in the feet after i.p. injection of D-luciferin (PerkinElmer; 250mg/kg) was measured in a Lumina II IVIS imager (PerkinElmer).

[3] = Pharmacokinetics in rats (IV and PO); set-up: species or system rat; conditions: in vivo
Method: Rat IV (2 mg/kg) Rat PO (10 mg/kg)
Cl (mL/h/kg) 2258 AUC0-last (hr*µg/mL) 3.34
AUC0-last (hr*µg/mL) 0.883
for AN15368 in rats. Data are presented as mean values +/- SEM; n= 3 animals.

[4] = Plasma protein binding (cyno); format: in vitro ADME
[5] = Pharmacokinetic (PK) analysis in NHP; format: in vivo, rhesus macaques (Macaca mulatta); conditions: 30 mg/kg dose
Method: Mid- and end-regimen PK assessments were also performed. […] Only 1 blood sample was collected at a single time point from each of the 18 animals. […] The plasma samples were provided to Pharmout Labs (Fremont, California) for analysis using LC-MS/MS. […] For calculation of PK parameters, the Cmax (maximum concentrations) and tmax (time to maximum concentrations) were determined by visual inspection of the plasma concentration vs. time curves from the pre-regimen and end-regimen periods. PK calculation was not performed for the mid-regimen PK samples since only 2 time points were collected. The AUC values for the pre- and end-regimen were calculated using the linear-trapezoidal rule with the following equation: AUC(t1-t2)=[(Ct2+Ct1)x(t2-t1)]/2 where t1 and t2 are consecutive sampling time points, AUC(t1-t2) is the fractional area-under-the-curve over time intervals t1 and t2, Ct2 is the concentration at time t2, Ct1 is the concentration at time t1. […] AUC0-∞ was estimated using the following equation: AUC0-∞=[…] Where AUC0-∞ was AUC from zero to infinity, AUClast was the AUC from zero to the last measurable time point, Clast was the concentration at the last measurable time point. AUC0-∞ and t1/2 were not estimated when the terminal elimination phase was not defined. Plasma clearance (CLp) after the IV dose was estimated using the following: CLp = Dose/AUC0-∞.

[6] = NHP bodyweights; format: in vivo, rhesus macaques (Macaca mulatta); conditions: individual treated macaques
[7] = Plasma protein binding (rat); format: in vitro ADME
[8] = NHP necropsy histology (lesions that could be consistent with Chagas); format: in vivo, rhesus macaques (Macaca mulatta); set-up: key to Skel mm, lesion grade / Small Int, lesion grade / Large Int, lesion grade / Heart, lesion grade: 0 (unlikely Chagas-related pathology); 5 (likely Chagas-related pathology); conditions: individual treated macaques T1-T9 at necropsy
[9] = NHP clinical observation, physical exams and reproductive follow-up
Method: Under light-anesthesia/sedation, peripheral blood samples were collected from each animal prior to treatment and at 7 time points following. Blood analysis (CBC and serum chemistry assays) and physical exams to evaluate the health of the study animals were performed on each animal prior to the beginning of the study and also at three time points during the treatment protocol (see Supplementary data).

SMILES: Cc1c(C(=O)NC(C(=O)OCc2ccc(F)c(F)c2)C(C)C)ccc2c1B(O)OC2 (stereo not drawn) [AN14353]
- Fluorescence intensity of the feet of mice infected with tdTomato-expressing T. cruzi ([1]; 0.8 mg/kg): 1665.8 and 1203.3 and 1103.9 and 2856.3 and 2240.9 and 2906.1 and 796.9 and 2912.6 and 793.9 and 2840.0
- Fluorescence intensity of the feet of mice infected with tdTomato-expressing T. cruzi ([1]; 3.2 mg/kg): 1183.1 and 248.0 and 552.8 and 1244.2 and 574.1 and 807.8 and 439.5 and 1642.2 and 2070.5 and 1949.8
- Fluorescence intensity of the feet of mice infected with tdTomato-expressing T. cruzi ([1]; 12.5 mg/kg): 556.7 and -13.5 and -118.4 and 985.8 and 248.2 and 312.2 and -170.7 and 977.4 and 456.5 and 1102.8
- Fluorescence intensity of the feet of mice infected with tdTomato-expressing T. cruzi ([1]; 25 mg/kg): 916.6 and 1396.9 and 669.0 and 929.6 and 109.0 and 109.7 and 3.9 and 55.6 and 1126.1 and 448.9
- Fluorescence intensity of the feet of mice infected with tdTomato-expressing T. cruzi ([1]; 40 mg/kg): 248.7 and 316.0 and 101.3 and 60.4 and 606.3 and -64.8 and 95.6 and 476.3 and 738.5 and 600.3
- Parasite proliferation index of footpads infected with tdTomato-expressing T. cruzi ([1]; Fig. 3a, individual footpads): 1.9 and 17.1 and 45.9 and 24.7 and 19.1 and 29.9 and -18.9 and -3.0 and 31.4 and 4.1
- Bioluminiscence signal of the feet of mice infected with Luciferase expresssing T. cruzi ([2]; dpi 0): 38900 and 50000 and 58900 and 53200 and 27400 and 49600
- Bioluminiscence signal of the feet of mice infected with Luciferase expresssing T. cruzi ([2]; dpi 6): 16800 and 26800 and 41700 and 19800 and 27400 and 55100
- Bioluminiscence signal of the feet of mice infected with Luciferase expresssing T. cruzi ([2]; dpi 12): 53200 and 26000 and 25400 and 27200 and 20400 and 32200
- Bioluminiscence signal of the feet of mice infected with Luciferase expresssing T. cruzi ([2]; dpi 24): 28700 and 38600 and 17100 and 17600 and 12200 and 16200
- Bioluminiscence signal of the feet of mice infected with Luciferase expresssing T. cruzi ([2]; dpi 30): 38600 and 26900 and 29300 and 28500 and 15800 and 33500
- Bioluminiscence signal of the feet of mice infected with Luciferase expresssing T. cruzi ([2]; dpi 48): 13500 and 15700 and 12600 and 12800 and 9070 and 11900
- Bioluminiscence signal of the feet of mice infected with Luciferase expresssing T. cruzi ([2]; dpi 72): 90400 and 76200 and 47100 and 14600 and 38700 and 41000
- in vivo trypanocidal activity (killing time) ([2]; single oral dose 25 mg/kg): rapid in vivo trypanocidal activity

SMILES: Cc1c(C(=O)N[C@H](C(=O)OCC2CCOCC2)C(C)C)ccc2c1B(O)OC2 [AN15368]
- AUC(0-t) ([3]; Rat IV (2 mg/kg)): 883 ng·h/mL
- Cmax ([3]; Rat IV (2 mg/kg)): 1700 ± 200 ng/mL
- clearance ([3]; Rat IV (2 mg/kg)): 37.6 mL/min/kg
- Vd ([3]; Rat IV (2 mg/kg), read-out: Vss): 1.11 L/kg
- AUC(0-t) ([3]; Rat PO (10 mg/kg)): 3340 ng·h/mL
- Cmax ([3]; Rat PO (10 mg/kg)): 2100 ± 290 ng/mL
- bioavailability ([3]; Rat PO (10 mg/kg)): 76.1%
- Funbound (cyno) [4]: 21%
- exposure [5]: 3.5 to 4.7 µg·h/kg
- bodyweight at end of study (remark) [6]: Weighed less at end of study
- Bodyweights ([6]; weighing 2017-09-11/12): 6.37 kg and 8.90 kg and 7.40 kg and 5.20 kg and 6.40 kg and 6.70 kg and 7.70 kg and 7.60 kg and 7.10 kg and 6.30 kg and 7.20 kg and 7.30 kg
- Bodyweights ([6]; weighing 2017-10-18/19): 7.00 kg and 9.40 kg and 7.50 kg and 5.30 kg and 6.60 kg and 7.10 kg and 8.00 kg and 7.70 kg and 7.20 kg and 6.40 kg
- Bodyweights ([6]; weighing 2017-11-16): 7.30 kg and 9.70 kg and 7.70 kg and 5.50 kg and 6.90 kg and 8.30 kg and 7.00 kg and 6.70 kg and 7.90 kg
- Bodyweights ([6]; weighing 2017-12-05/06): 7.50 kg and 9.70 kg and 7.80 kg and 5.80 kg and 6.90 kg and 7.10 kg and 8.10 kg and 7.00 kg and 8.40 kg
- Bodyweights ([6]; weighing 2017-12-19/20): 7.50 kg and 9.70 kg and 7.60 kg and 5.50 kg and 6.50 kg and 6.70 kg and 8.10 kg and 7.40 kg and 6.60 kg and 7.90 kg and 7.70 kg
- Bodyweights ([6]; weighing 2018-01-08/09): 7.60 kg and 9.80 kg and 7.80 kg and 5.40 kg and 6.60 kg and 6.80 kg and 8.20 kg and 6.90 kg and 7.00 kg
- Bodyweights ([6]; weighing 2018-01-22/23): 7.60 kg and 9.95 kg and 7.90 kg and 5.60 kg and 6.80 kg and 7.15 kg and 8.25 kg and 7.65 kg and 6.85 kg and 8.10 kg and 8.20 kg
- Bodyweights ([6]; weighing 2018-02-26/27): 8.05 kg and 10.20 kg and 7.90 kg and 5.70 kg and 6.95 kg and 7.25 kg and 8.45 kg and 7.80 kg and 7.30 kg and 8.35 kg and 8.25 kg
- Bodyweights ([6]; weighing 2018-03-26/27): 8.00 kg and 10.15 kg and 5.75 kg and 7.00 kg and 7.55 kg and 8.65 kg and 7.85 kg and 6.95 kg and 7.50 kg and 8.20 kg and 8.75 kg
- Bodyweights ([6]; weighing 2018-04-09/10/11): 7.95 kg and 10.20 kg and 8.10 kg and 5.90 kg and 6.85 kg and 7.15 kg and 8.70 kg
- Funbound (rat) [7]: 10%
- Heart, lesion grade [8]: 1* and 0 and 2* and 3*
- Histology Comments [8]: Heart- mutifocal areas of mild epicarditis; also recorded: No overt pathology identified; also recorded: Sk mm- mild focal area of neutrophilic and lymphocytic inflammation Small int- prominent villar tip necrosis/apoptosis, multifocal Lrg Int- focal area of mild lymphohistiocytic inflammation in muscularis; also recorded: Heart- Multifocal areas of mild lymphohistiocytic inflammation/myofiber loss; regional area of mild-moderate myocardial fibrosis; intravascular bacterial or fungal thrombus. Heart lesions are likely related to thromus/infection but Chagas can't be ruled out; also recorded: Sk mm- Multifocal areas of mild lymphohistiocytic inflammation and myofiber loss; Lrg Int- Mild diffsue lymphoplasmactic colitis; focal area of mild lymphohistiocytic inflammation in muscularis; also recorded: Heart - multiple foci of mild lymphoctic inflammation Sk mm-one section has acute myofiber degeneration (ketamine artifact) Small int- prominent villar tip necrosis/apoptosis, multifocal; also recorded: Heart- multifocal areas of mild to moderate myocardial, subepicardial, and perivascular lymphohistiocytic and plasmacytic inflammation; regional area of mild-moderate myocardial fibrosis
- Large Int, lesion grade [8]: 0 and 1*
- Skel mm, lesion grade [8]: 0 and 1* and 2*
- Small Int, lesion grade [8]: 0
- adverse events ([9]; 19 treated macaques, 60 day treatment period): No adverse events
- healthy and T. cruzi-seronegative infants produced ([9]; female, rhesus monkey, in vivo, 2 years): 13
